How the values were obtained:
[1] = tested on: strawberry anthracnose fungus (Glomerella cigulata); assay: Test Example 4: control effect of purified spores on strawberry anthracnose; assay type: in vivo; details: 20 ppm
Protocol: Strawberry seedlings (cultivar: Akihime) cultivated in plastic pots and having about 10 developed leaflets were subjected to foliage application treatment with a spore preparation sample of strain BS-0105 obtained by formulating the bacterium of the present invention produced by the method described in Production Example 5, by the method described in Formulation Example 2, so that the proportion of cells might be 2×10^7 CFU/mL. After the pots were allowed to stand in a dark moist chamber at 25° C. for 24 hours and then in a glass house at 25° C. for 3 days (or 1 day in the case of Amister 20 flowable), the plants were inoculated with a suspension of strawberry anthracnose fungus conidia in distilled water (Glomerella cigulata, 2×10^6 spores/ml) by spraying. The pots were allowed to stand in a dark moist chamber at 25° C. for 24 hours and then in a glass house at 25° C. for 14 days to cause the disease. The disease severity was calculated by the following equation and the protective value was calculated from the disease severity values by the following equation to make a comparison with respect to control effect. […]

[2] = tested on: Pseudomonas syringae pv. lachrymans; assay: Test Example 5: control effect of a culture broth on melon bacterial blight; assay type: in vivo; details: foliar spray of 2 mL of 2 ppm solution
Protocol: Each of nursery trays was filled with Aisai No. 1 (mfd. by Katakura Chikkarin Co., Ltd.) and a melon (cultivar: Arles) seedling was raised in each tray. In this case, a seed treatment plot was prepared by immersing melon seeds in a Petri dish containing 10 mL (10^8 spores/mL) of the culture broth of strain BS-0105 prepared in Production Example 2, followed by bacterization at 30° C. for 2 hours. After the development of a cotyledon, the seedling was potted in a 12-cm polyethylene pot filled with Aisai No. 1. When three true leaves were completely developed, the following plots were prepared: plots on which drench or foliar spray, respectively, treatment with 1 mL ([…]) of the culture broth of strain BS-0105 prepared in Production Example 2 was carried out, and a plot on which foliar spray of 2 mL of a 2 ppm solution of Acibenzolar-S-methyl was carried out. As to the inoculation of the pathogenic bacterium (Pseudomonas syringae pv. lachrymans), 5 days after the treatment, a liquid containing the bacterial blight bacterium previously cultured on a potato semisynthetic medium (a decoction consisting of 300 g of potato and 1 L of distilled water, calcium nitrate tetrahydrate 0.5 g, disodium hydrogenphosphate dodecahydrate 2 g, peptone 5 g, sucrose 20 g, powdered agar 15 g) was inoculated on the whole of each leaf by spraying so that the reverse side of the leaf might be mainly treated. Inspection for infection was carried out by counting lesions in each of leaves from second to fourth leaves 8 days after the inoculation with the pathogenic bacterium. The protective value was calculated from the number of the lesions by the following equation to make a comparison with respect to control effect. Protective value={1−(number of lesions on treated plot/number of lesions on untreated plot)}×100

parsley cultured cells [3] = assay: Activity of inducing disease resistance: elicitor responsiveness of parsley cultured cells, phytoalexin detection by fluorescence; assay type: cell-based; details: 2.5 μM
Protocol: The activity of inducing disease resistance in plant of compound 1 and compound 2 according to the present invention was also evaluated according to the method of Siegrist, J. et al. The results are shown in Table 9.
(§1) The activity of inducing disease resistance in plant of each of compound 1 and compound 2 was evaluated in the same manner as in Evaluation Example 1 by adopting the method practiced in Evaluation Example 1, i.e., the method in which the elicitor responsiveness of parsley cultured cells was measured by the detection of phytoalexin using fluorescence.
as §1, with “inducing” for “inducing disease”, “resistance to” for “resistance in”, “plant diseases” for “plant”, “compound 3” for “compound 1”, “compound 4” for “compound 2”

[4] = tested on: cucumber bacterial blight bacterium (Pseudomonas syringae pv. lachrymans); assay: Evaluation Example 3: control effect on cucumber bacterial blight, plant foot drench; assay type: in vivo; details: 20 ppm
Protocol: Each of plastic pots was filled with horticultural compost and sown with cucumber (cultivar: Suyo), followed by growing in a greenhouse for 20 days. The cucumber young seedling having a developed second true leaf was subjected to plant foot drench treatment with the formulation obtained in the above-mentioned preparation example, in a proportion of 5 mL per seedling. After the pots were allowed to stand in a glass house at 25° C. for 3 days, the plants were inoculated with a suspension (1×10^8 CFU/mL) of cucumber bacterial blight bacterium (Pseudomonas syringae pv. lachrymans) in distilled water by spraying. The pots were allowed to stand in a dark moist chamber at 25° C. for 24 hours and then in a glass house at 25° C. for 7 days to cause the disease. Lesions in each leaf were counted and the protective value was calculated from the number of the lesions by the following equation to make a comparison with respect to control effect. Protective value={1−(number of lesions on treated plot/number of lesions on untreated plot)}×100

[5] = tested on: Fusarium wilt of cucumber fungus (Fusarium oxysporum f. sp. cucumerium); assay: Evaluation Example 5: control effect on Fusarium wilt of cucumber; assay type: in vivo; details: 20 ppm, Spray
Protocol: Each of plastic vats was filled with horticultural compost and sown with cucumber (cultivar: Sagamihanjiro), followed by growing in a greenhouse for 12 days. The cucumber young seedling having a developed cotyledon was subjected to foliar spray treatment with the formulation obtained in the above-mentioned preparation example, in a proportion of 1 mL per seedling. After the vats were allowed to stand in a glass house at 25° C. for 3 days, the plant foot of each plant was inoculated with 2 mL of a suspension (3×10^7 spores/mL) of conidia of Fusarium wilt of cucumber fungus (Fusarium oxysporum f. sp. cucumerium) in distilled water by drench. The vats were allowed to stand in a glass house at 25° C. for 14 days to cause the disease. The disease severity was calculated from the degree of infection and then the protective value was calculated from the disease severity values by the following equation to make a comparison with respect to control effect. […]

parsley cultured cells [6] = assay: Activity of inducing disease resistance: elicitor responsiveness of parsley cultured cells, phytoalexin detection by fluorescence; assay type: cell-based; details: Evaluation Example 1; elicitor treatment Yes; 2.5 μM

CSC(=O)c1cccc2nnsc12 [Acibenzolar-S-methyl, S-methyl 1,2,3-benzothiazole-7-carboxylate]
Disease severity [1]: 10.9 b | Protective value [1]: 85.1 | Protective value Average [2]: 78.5 | Protective value Fourth leaf [2]: 66.7 | Protective value Second leaf [2]: 100.0 | Protective value Third leaf [2]: 68.8 | Relative fluorescence (parsley cultured cells [3]; Evaluation Example 6, elicitor treatment No): 86.9 | Relative fluorescence (parsley cultured cells [3]; Evaluation Example 6, elicitor treatment Yes): 664.8 | Relative fluorescence (parsley cultured cells [3]; Evaluation Example 7, elicitor No): 0.8 | Relative fluorescence (parsley cultured cells [3]; Evaluation Example 7, elicitor Yes): 377.5 | Number of lesions per leaf [4]: 137.8 b | Protective value [4]: 78.8 | Disease severity [5]: 9.4 | Protective value [5]: 75.6 | Relative fluorescence (parsley cultured cells [6]): 754.3

From US7935335B2, “Strains belonging to the genus Paenibacillus and method of controlling plant disease by using these strains or culture thereof” (Kaken Pharmaceutical Co., Ltd., priority 2004, dated 2011)
